# Measurements from ChEMBL document CHEMBL1152102, “6-Phenyl-6-alkylamido-5,6-dihydro-2H-pyran-2-ones: novel HIV protease inhibitors” (Bioorg Med Chem Lett, 1996).
# Target: Human immunodeficiency virus type 1 protease (Human immunodeficiency virus 1, UniProt Q72874)
# Experiment: In vitro inhibitory activity against purified HIV-1 protease at a pH of 4.7 and a final enzyme concentration of 0.45-1.1 nM
row,SMILES,IC50 [nM]
1,CC(C)c1ccccc1SC1=C(O)OC(CCC(=O)N2CCSCC2)(c2ccccc2)CC1=O (stereo not given),1100
2,CC(C)c1ccccc1SC1=C(O)OC(CCCC(=O)N2CCOCC2)(c2ccccc2)CC1=O (stereo not given),186
3,CC(C)c1ccccc1SC1=C(O)OC(CCCCC(=O)NCCc2ccccc2)(c2ccccc2)CC1=O (stereo not given),71
4,CC(C)c1ccccc1SC1=C(O)OC(CCCC(N)=O)(c2ccccc2)CC1=O (stereo not given),101
5,CC(C)c1ccccc1SC1=C(O)OC(CCC(=O)N2CCNCC2)(c2ccccc2)CC1=O (stereo not given),1110
6,CC(C)c1ccccc1SC1=C(O)OC(CCCCC(=O)N2CCOCC2)(c2ccccc2)CC1=O (stereo not given),195
7,CCCCCC1(c2ccccc2)CC(=O)C(Sc2ccccc2C(C)C)=C(O)O1 (stereo not given),88
8,CC(C)c1ccccc1SC1=C(O)OC(CCCC(=O)N(C)Cc2ccccc2)(c2ccccc2)CC1=O (stereo not given),676
9,CC(C)c1ccccc1SC1=C(O)OC(CCCCC(=O)N2CCSCC2)(c2ccccc2)CC1=O (stereo not given),583
10,CC(C)c1ccccc1SC1=C(O)OC(CCCCC(=O)N2CCNCC2)(c2ccccc2)CC1=O (stereo not given),234
11,CC(C)c1ccccc1SC1=C(O)OC(CCCCC(=O)Nc2ccccc2)(c2ccccc2)CC1=O (stereo not given),91
12,CC(C)c1ccccc1SC1=C(O)OC(CCCCC(=O)O)(c2ccccc2)CC1=O (stereo not given),1.8
13,CC(C)c1ccccc1SC1=C(O)OC(CCCC(=O)N2CCNCC2)(c2ccccc2)CC1=O (stereo not given),564
14,CC(C)c1ccccc1SC1=C(O)OC(CCCC(=O)N(C)c2ccccc2)(c2ccccc2)CC1=O (stereo not given),624
15,CC(C)c1ccccc1SC1=C(O)OC(CCCC(=O)NCCc2ccccc2)(c2ccccc2)CC1=O (stereo not given),146
16,CC(C)c1ccccc1SC1=C(O)OC(CCCC(=O)N2CCN(C(=O)OC(C)(C)C)CC2)(c2ccccc2)CC1=O (stereo not given),124
17,CC(C)c1ccccc1SC1=C(O)OC(CCC(=O)N2CCOCC2)(c2ccccc2)CC1=O (stereo not given),2440
18,CC(C)c1ccccc1SC1=C(O)OC(CCCCC(=O)NCc2ccccc2)(c2ccccc2)CC1=O (stereo not given),26
19,CC(C)c1ccccc1SC1=C(O)OC(CCCC(=O)Nc2ccccc2)(c2ccccc2)CC1=O (stereo not given),429
20,CC(C)c1ccccc1SC1=C(O)OC(CCCCC(N)=O)(c2ccccc2)CC1=O (stereo not given),92
21,CC(C)c1ccccc1SC1=C(O)OC(CCC(=O)N2CCN(C(=O)OC(C)(C)C)CC2)(c2ccccc2)CC1=O (stereo not given),1270
22,CC(C)c1ccccc1SC1=C(O)OC(CCCC(=O)NCc2ccccc2)(c2ccccc2)CC1=O (stereo not given),81
23,CC(C)c1ccccc1SC1=C(O)OC(CCCC(=O)N2CCSCC2)(c2ccccc2)CC1=O (stereo not given),285
24,CC(C)c1ccccc1SC1=C(O)OC(CCCCC(=O)N2CCN(C(=O)OC(C)(C)C)CC2)(c2ccccc2)CC1=O (stereo not given),127
25,CC(C)c1ccccc1SC1=C(O)OC(CCCC(=O)N(C)CCc2ccccc2)(c2ccccc2)CC1=O (stereo not given),216
